Paper PMC11543753, “The Ortholog Receptor Or67d in Drosophila Bipectinata is able to Detect Two Different Pheromones” (Journal of Chemical Ecology, 2024)

Columns and labels:
D. melanogaster Or67d = target: T1, D. melanogaster Or67d (Drosophila melanogaster, UniProt Q9VT92); test: single sensillum recording, spike rate of at1 neurons; assay type: cell-based; details: agonist; odor 10^-3 (v/v) in dichloromethane, 0.5 s puff; native at1 neurons of wild-type CS flies
T1 construct: native receptor in at1 trichoid sensillum neurons of wild-type flies; with Odorant receptor coreceptor
T1 sequence (Q9VT92 1-391): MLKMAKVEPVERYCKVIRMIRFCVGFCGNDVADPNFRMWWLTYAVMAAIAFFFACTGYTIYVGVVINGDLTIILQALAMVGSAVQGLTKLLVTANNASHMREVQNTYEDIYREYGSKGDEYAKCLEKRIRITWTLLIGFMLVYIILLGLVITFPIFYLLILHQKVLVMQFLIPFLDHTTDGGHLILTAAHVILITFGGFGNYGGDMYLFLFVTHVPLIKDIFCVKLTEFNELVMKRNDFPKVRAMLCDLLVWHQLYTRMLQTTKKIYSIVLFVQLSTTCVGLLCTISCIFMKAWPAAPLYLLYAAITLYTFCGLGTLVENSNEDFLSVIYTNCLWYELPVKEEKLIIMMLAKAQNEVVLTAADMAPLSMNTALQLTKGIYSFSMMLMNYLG
T1 sequence (Q9VNB5 1-486 partner): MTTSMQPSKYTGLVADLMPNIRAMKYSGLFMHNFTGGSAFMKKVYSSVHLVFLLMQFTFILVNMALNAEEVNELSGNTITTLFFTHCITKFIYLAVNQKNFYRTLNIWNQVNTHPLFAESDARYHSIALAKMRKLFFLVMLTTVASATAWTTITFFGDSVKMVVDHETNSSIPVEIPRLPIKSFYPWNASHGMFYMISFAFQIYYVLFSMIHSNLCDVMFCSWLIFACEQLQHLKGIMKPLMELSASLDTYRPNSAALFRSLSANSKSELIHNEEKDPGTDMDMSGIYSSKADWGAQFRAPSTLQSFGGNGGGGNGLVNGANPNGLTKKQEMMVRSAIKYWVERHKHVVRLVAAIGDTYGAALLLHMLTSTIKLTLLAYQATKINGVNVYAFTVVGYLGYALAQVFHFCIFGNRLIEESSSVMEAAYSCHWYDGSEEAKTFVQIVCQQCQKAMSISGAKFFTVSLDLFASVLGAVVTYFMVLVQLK

[1] = tested on: T2, DbipOr67d (Drosophila bipectinata); test: as above; assay type: cell-based; details: agonist; odor 10^-3 (v/v) in dichloromethane, 0.5 s puff; D. melanogaster at1 neurons expressing DbipOr67d; also tested in wild-type D. bipectinata at1
T2 construct: with Odorant receptor coreceptor (Drosophila melanogaster)

Row | Structure (SMILES) | single sensillum recording, spike rate of at1 neurons (D. melanogaster Or67d) | single sensillum recording, spike rate of at1 neurons [1]
1 | CCCCCC/C=C\CCCCCCCCCCOC(C)=O [cVA, (Z)-11-octadecen-1-yl acetate] | D. melanogaster CS flies exhibited significant responses only to cVA (Fig. 1c) | Drosophila melanogaster OSNs ectopically expressing D.bipOr67d respond to cVA and Z11-20:Ac.
2 | CCCCCCCC/C=C\CCCCCCCCCCOC(C)=O [Z11-20:Ac, (Z)-11-eicosen-1-yl acetate] | – | Drosophila melanogaster OSNs ectopically expressing D.bipOr67d respond to cVA and Z11-20:Ac.
